Among the data in BindingDB's records for PubMed 34154424 (Bayer AG) are IC50 values, retold here.

Assay [1] concerns the target Tyrosine-protein kinase Fyn (Homo sapiens) (UniProt P06241). Kind of assay: Inhibition of T-Fyn (unknown origin) by HTRF assay. (In general: TR-FRET usually uses a lanthanide donor and a delayed reading to cut background.)
Assay [2] has as its target Mitogen-activated protein kinase kinase kinase 7, TAK1 kinase (Homo sapiens) (UniProt O43318). Kind of assay: Inhibition of Tak1 (unknown origin) in presence of ATP.
For assay [3] the target is unchanged. The experiment in a line: Inhibition of Tak1 (unknown origin) by competition binding assay.

Molecules are shown by their SMILES.

Chain of Mitogen-activated protein kinase kinase kinase 7, TAK1 kinase (Homo sapiens) (O43318 whole entry, looked up): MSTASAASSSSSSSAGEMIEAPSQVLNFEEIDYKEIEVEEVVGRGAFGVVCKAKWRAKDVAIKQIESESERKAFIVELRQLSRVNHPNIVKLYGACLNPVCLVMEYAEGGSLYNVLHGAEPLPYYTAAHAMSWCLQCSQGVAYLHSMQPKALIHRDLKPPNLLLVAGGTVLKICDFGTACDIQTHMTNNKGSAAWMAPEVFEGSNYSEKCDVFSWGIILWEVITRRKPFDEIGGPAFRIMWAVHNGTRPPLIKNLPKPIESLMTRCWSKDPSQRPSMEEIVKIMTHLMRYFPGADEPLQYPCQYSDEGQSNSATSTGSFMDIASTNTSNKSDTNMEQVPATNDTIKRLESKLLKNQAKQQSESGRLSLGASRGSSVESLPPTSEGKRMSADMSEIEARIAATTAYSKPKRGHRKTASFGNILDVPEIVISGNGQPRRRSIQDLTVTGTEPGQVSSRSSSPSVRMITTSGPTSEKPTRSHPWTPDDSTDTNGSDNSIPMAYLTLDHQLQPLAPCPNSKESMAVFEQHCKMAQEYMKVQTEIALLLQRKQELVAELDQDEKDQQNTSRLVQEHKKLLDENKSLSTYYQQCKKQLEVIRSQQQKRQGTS
Chain of Tyrosine-protein kinase Fyn (Homo sapiens) (P06241 whole entry, looked up): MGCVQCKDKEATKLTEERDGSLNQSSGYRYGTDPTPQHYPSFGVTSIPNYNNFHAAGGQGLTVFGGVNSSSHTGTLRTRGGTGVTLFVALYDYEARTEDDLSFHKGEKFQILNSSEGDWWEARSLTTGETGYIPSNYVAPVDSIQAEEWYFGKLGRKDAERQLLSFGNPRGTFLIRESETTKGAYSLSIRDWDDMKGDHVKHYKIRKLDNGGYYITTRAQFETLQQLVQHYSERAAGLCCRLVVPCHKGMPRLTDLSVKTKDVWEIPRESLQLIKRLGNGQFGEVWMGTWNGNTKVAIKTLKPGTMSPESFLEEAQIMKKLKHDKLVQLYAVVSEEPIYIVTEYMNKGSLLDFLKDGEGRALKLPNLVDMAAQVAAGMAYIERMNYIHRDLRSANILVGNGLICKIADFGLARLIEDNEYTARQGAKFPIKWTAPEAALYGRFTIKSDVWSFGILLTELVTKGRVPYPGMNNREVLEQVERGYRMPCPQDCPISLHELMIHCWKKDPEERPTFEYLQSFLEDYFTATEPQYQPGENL

For orientation: IC50 means the concentration at which inhibition is half-maximal. Take `C[C@H]1CC(=O)Nc2cc(C(=O)NCCC3CC3)ccc2N1C(=O)N1CC2CC2C1` (stereo partly drawn): the values for the IC50 in assay [1], in assay [2] and in assay [3] were over 5.7 nM, over 2 nM and over 2 nM, respectively.
